The text below walks through data of patent publication US20260130395A1, “Water Dispersible Botanical Compositions” (Aquila Black Limited, priority 2021, published 2026).

One data set addresses T1, 5-HT3 serotonin receptor (Homo sapiens, UniProt P46098).
T1 sequence (P46098 24-478): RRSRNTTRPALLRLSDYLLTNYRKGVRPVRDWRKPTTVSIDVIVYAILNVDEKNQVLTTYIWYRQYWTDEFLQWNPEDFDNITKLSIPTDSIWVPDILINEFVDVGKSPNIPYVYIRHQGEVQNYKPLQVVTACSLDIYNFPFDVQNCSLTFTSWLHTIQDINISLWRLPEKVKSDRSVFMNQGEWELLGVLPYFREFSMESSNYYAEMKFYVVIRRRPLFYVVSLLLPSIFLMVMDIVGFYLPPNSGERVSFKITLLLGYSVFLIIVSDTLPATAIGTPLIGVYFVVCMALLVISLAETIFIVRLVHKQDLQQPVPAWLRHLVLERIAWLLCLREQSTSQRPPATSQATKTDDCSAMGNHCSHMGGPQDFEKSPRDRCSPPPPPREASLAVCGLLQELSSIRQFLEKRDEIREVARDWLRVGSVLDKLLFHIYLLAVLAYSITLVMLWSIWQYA
The conditions noted are these: Nebrisi et al. 2020, Front. Pharmacol. 11:1274; cited from earlier work.

Data set [1] is described as follows: Stability of Nanoemulsion Concentrate 3 (α-tocopherol and Vitamin B12 content) by LCMSMS. The note with it: for Stability of Vitamin B12 in Nanoemulsion Concentrate 3: average of triplicate. Type of data set: physicochemical. As for the experimental part:
At each time period (0, 7, 28, 60, 120, 150 and 180 days), triplicate samples were analysed for content of α-tocopherol and Vitamin B12.
(FIGS. 14 and 15, Table 13). Data reported in Table 13 and plotted in FIGS. 14 and 15 are average values of the triplicate measurements taken.

As for `COc1cc(CNC(=O)CCCC/C=C/C(C)C)ccc1O` [capsaicin], the “mode of action at the 5-HT3 serotonin receptor” value at 5-HT3 serotonin receptor is recorded as “negative allosteric modulator”.
For Vitamin B12, the “Stability of Vitamin B12 in Nanoemulsion Concentrate 3” value (“Stability of Vitamin B12” for short) in data set [1] (Refrigerated (2-4° C.), 0 days) is 28.67 ng/mL; in data set [1] (Refrigerated (2-4° C.), 7 days) it was 30.33 ng/mL; in data set [1] (Refrigerated (2-4° C.), 28 days), 29.33 ng/mL; in data set [1] (Refrigerated (2-4° C.), 60 days), 30.00 ng/mL; in data set [1] (Refrigerated (2-4° C.), 120 days), 32.00 ng/mL; in data set [1] (Refrigerated (2-4° C.), 150 days) it was 29.67 ng/mL. Moreover, the “Stability of Vitamin B12” value in data set [1] (Refrigerated (2-4° C.), 180 days) came to 32.50 ng/mL; in data set [1] (Room Temperature (21-25° C.), 0 days), 28.67 ng/mL; in data set [1] (Room Temperature (21-25° C.), 7 days), 24.00 ng/mL; in data set [1] (Room Temperature (21-25° C.), 28 days), 22.67 ng/mL; in data set [1] (Room Temperature (21-25° C.), 60 days), 22.67 ng/mL; in data set [1] (Room Temperature (21-25° C.), 120 days), 19.67 ng/mL. Moreover, the “Stability of Vitamin B12” value in data set [1] (Room Temperature (21-25° C.), 150 days) stood at 19.00 ng/mL; in data set [1] (Room Temperature (21-25° C.), 180 days), 16.50 ng/mL. Further, the “stability in Nanoemulsion Concentrate 3 (in words)” value in data set [1] (after 180 days stored at 21-25° C.) was “some slight degradation”; in data set [1] (stored at 2-4° C., 180 days) it was “high degree of stability”.
